Legend:
ATR/CHK1/Cdc25C pathway = experiment: Western blot of ATR-Chk1-Cdc25C cascade in HCT116 cells; type: cell-based, human
Procedure: To clarify the molecular mechanism responsible for inducing G2/M phase arrest in HCT116 following the treatment with the synthesised compounds, the signalling in the checkpoint pathway that regulates the G2/M transition was investigated. The mammalian cells respond to the DNA damage through 2 different kinase-signalling cascades (ATR-Chk1 and ATM-Chk2). First, the effect of the synthesised compounds on ATM and ATR phosphorylation was tested. […] Then, the phosphorylation of downstream effectors of ATM/ATR, phospho-Chk1-S269, and phospho-Chk2-T68 kinases was explored. […] It is well known that in vitro activation of Chk1 phosphorylates Cdc25C on serine-216. Therefore, the impact of the synthesised compounds on the Cdc25C phosphorylation at Ser-216 was investigated.
(§1) Western blotting analysis for HCT116 cells was performed according to the reported procedure in the literature[77–79] to determine the effects of CP hybrids; 4a, 4b, 4e, 4i, and 4j on the expression of polymerised tubulin, γH2AX, p-ATR, p-CHK1, and p-Cdc25C by using the appropriate antibody. See Supplementary Appendix A.

[1] = target: T1, recombinant human DNA topoisomerase I (Homo sapiens, UniProt P11387); experiment: Human DNA Topoisomerase I Assay Kit (ProFoldin); type: biochemical; settings: compounds at their IC50 values, reference camptothecin
T1 construct: purchased Sigma-Aldrich
T1 sequence (P11387 1-765): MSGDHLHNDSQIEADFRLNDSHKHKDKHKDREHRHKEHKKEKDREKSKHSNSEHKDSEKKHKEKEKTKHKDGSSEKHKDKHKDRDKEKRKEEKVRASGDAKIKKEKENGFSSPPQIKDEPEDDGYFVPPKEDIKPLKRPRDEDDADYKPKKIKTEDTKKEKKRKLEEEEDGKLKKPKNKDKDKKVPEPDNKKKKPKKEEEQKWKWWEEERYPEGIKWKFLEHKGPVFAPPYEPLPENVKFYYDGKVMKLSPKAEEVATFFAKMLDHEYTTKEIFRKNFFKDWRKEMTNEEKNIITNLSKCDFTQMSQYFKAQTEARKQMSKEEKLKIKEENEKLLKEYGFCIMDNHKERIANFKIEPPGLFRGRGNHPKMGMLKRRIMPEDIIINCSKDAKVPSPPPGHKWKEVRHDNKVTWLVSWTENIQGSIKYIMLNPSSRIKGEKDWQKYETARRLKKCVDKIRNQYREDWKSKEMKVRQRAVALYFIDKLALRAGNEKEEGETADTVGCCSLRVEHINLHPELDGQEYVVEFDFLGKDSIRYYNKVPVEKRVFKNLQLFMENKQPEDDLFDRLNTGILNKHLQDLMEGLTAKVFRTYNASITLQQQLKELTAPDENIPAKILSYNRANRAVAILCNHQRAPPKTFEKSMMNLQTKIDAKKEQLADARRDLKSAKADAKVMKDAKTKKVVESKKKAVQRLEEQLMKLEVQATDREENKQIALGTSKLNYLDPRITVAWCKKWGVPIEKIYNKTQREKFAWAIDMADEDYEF

HCT116 cells = experiment: Analysis of cell cycle distribution; type: cell-based, human; settings: HCT116, different concentrations, 24 h
Source text: Generally, the mammalian cells counteract the DNA damage by different mechanisms including the cell cycle arrest to allow the cell to repair the damage. There are 2 checkpoints that control DNA damage. The first checkpoint is at the G1/S transition while the other checkpoint is at the G2/M transition. To cover the mechanisms of the synthesised compounds in inhibiting cell proliferation, we analysed the distribution of cell cycle of HCT116 cells following the treatment with different doses of 4a, 4b, 4e, 4i, and 4j. […] See Supplementary Appendix A.

γH2AX [2] = experiment: γH2AX western blotting in HCT116 cells; type: cell-based, human; settings: HCT116, IC50 of compound, versus control cells
Source text: (§2) DNA damage is a major reason for inhibiting proliferation and inducing cytotoxicity in cancer cells as well as the main downstream cascade for the Topo-I, Top-II, and tubulin polymerisation inhibition. The phosphorylation of the histone H2AX always occurs after DNA damage forming double-stranded breaks (DSBs). Therefore, we tested the capability of the potent prepared compounds to trigger DNA double strand breaks through detection of the phosphorylation of γH2AX using two different techniques, Immunofluorescence, and western blotting.
as §1

tubulin polymerisation = experiment: Tubulin immunofluorescence microscopy in HCT116 cells; type: cell-based, human; settings: HCT116, IC50 of compound, 36 h
Procedure: The process of tubulin polymerisation in the cells is important for the completion of mitosis and is targeted for cancer treatment. It has been reported that the suppression of tubulin polymerisation will arrest the cells at the G2/M and it eventually leads to cell death. To test the tubulin-disruptive effect of the CP hybrids, HCT116 cells were analysed by immunocytochemistry. HCT116 cells were incubated for 36 h with IC50 of the CP hybrids (4a, 4b, 4e, 4i, and 4j), nocodazole (a well-known tubulin polymerisation inhibitor, as a positive control), DMSO or Paclitaxel (a well-known tubulin polymerisation inducer, as a negative control), and tubulin was visualised by immunofluorescence microscopy. An antibody for α-tubulin was used. […] Moreover, a Western blot was performed to verify the tubulin polymerisation inhibition ability of the synthesised compounds (Figure 8(B)). The level of polymerised tubulin was decreased in HCT116 cells treated with IC50 values of CP hybrids 4a, 4b, 4e, 4i, 4j, or nocodazole.
(§3) HCT116 cells were cultured and treated with the IC50 of the potent compounds (4a, 4b, 4e, 4i, and 4j) or DMSO (control), fixed, permeabilized, and they were incubated with either γH2AX or α-tubulin antibody as the reported procedure in the literature. Confocal images were captured using a Confocal Microscope with a 63X objective. All images were processed using ImageJ software. See Supplementary Appendix A.

γH2AX [3] = experiment: γH2AX immunofluorescence in HCT116 cells; type: cell-based, human; settings: HCT116, IC50 of compound
Source text: as §2, §3

Topo IIα = target: T2, Topo IIα (Homo sapiens, UniProt P11388); experiment: Human Topoisomerase II assay kit (TG1001); type: biochemical; settings: 10 µM
T2 construct: purchased Topogen Inc. TG1001
Procedure: Second, the inhibitory activity of Topo IIα was evaluated for compounds 4a, 4b, 4e, 4i, and 4j utilising Human Topoisomerase II assay kit (TG1001, Topogen Inc.). […] The above results are compatible with our design of these hybrids as Top-II inhibitors.
The inhibitory activity of the selected ciprofloxacin hybrids on human Top-II was tested using a Human Topoisomerase II assay kit (TG1001, Topogen Inc.). In this assay, 1% agarose gel was used, and the compounds were tested at two different concentrations, 10 and 100 µM. Also, etoposide was used as a positive control in this experiment. The assay was performed according to the manufacturer’s protocol. The image of the electrophoretic gel was captured using an imaging system (iBright-CL1500, Thermo Fisher Scientific).

T2 sequence (P11388 whole entry): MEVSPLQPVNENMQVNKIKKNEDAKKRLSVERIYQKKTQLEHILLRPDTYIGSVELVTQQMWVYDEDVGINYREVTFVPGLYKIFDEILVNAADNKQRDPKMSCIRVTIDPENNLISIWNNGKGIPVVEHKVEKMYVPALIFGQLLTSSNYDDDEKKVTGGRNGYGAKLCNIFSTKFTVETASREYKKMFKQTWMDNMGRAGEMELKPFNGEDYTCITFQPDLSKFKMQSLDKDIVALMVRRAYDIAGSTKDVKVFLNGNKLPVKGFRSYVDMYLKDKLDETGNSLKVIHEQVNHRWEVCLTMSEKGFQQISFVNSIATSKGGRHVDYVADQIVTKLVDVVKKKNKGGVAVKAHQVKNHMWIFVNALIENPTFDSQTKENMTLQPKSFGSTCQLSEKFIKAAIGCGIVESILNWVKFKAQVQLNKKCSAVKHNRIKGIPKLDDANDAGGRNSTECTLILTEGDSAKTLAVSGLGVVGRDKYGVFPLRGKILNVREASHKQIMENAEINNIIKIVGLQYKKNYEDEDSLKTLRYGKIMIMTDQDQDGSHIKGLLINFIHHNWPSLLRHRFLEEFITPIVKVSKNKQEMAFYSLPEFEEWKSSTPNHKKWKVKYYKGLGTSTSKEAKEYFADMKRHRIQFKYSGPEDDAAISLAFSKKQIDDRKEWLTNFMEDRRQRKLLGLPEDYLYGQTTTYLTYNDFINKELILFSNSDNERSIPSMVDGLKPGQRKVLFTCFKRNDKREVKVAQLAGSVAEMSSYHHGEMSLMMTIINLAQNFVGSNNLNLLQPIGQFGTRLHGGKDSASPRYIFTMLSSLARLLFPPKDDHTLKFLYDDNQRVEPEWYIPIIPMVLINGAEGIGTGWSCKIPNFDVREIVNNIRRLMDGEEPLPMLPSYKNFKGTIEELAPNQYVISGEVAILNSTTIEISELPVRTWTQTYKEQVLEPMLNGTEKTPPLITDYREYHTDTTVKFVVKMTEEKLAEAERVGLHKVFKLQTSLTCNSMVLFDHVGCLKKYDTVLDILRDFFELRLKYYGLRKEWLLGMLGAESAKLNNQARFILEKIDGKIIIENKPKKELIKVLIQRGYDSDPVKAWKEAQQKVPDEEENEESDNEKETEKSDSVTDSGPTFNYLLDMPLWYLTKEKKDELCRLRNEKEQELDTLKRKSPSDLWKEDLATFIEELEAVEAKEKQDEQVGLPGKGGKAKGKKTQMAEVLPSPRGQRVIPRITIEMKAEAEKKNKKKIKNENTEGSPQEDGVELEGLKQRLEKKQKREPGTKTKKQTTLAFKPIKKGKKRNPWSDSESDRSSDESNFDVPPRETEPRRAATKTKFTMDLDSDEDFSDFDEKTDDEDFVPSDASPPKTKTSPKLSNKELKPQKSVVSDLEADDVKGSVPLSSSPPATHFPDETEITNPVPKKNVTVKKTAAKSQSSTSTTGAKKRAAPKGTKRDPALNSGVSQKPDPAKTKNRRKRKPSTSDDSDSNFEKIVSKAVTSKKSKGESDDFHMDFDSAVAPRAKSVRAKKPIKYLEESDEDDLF

In the case of O=C(/C=C/c1ccccc1)c1ccc(-n2cc(CN3CCN(c4cc5c(cc4F)c(=O)c(C(=O)O)cn5C4CC4)CC3)nn2)cc1 [Compound 4a, (E) 7-(4-((1–(4-Cinnamoylphenyl)-1H-1,2,3-triazol-4-yl)methyl)piperazin-1-yl)-1-cyclopropyl-6-fluoro-4-oxo-1,4-dihydroquinoline-3-carboxylic acid], the “expressions of p-ATR, p-CHK1, and p-Cdc25C, Western blot” value (ATR/CHK1/Cdc25C pathway) is reported as “increased”, the “Top-I inhibitory activity, enzyme assay kit” value [1] is reported as “highest Top-I inhibitory activity” and the cell cycle distribution (HCT116 cells) is reported as “induced G2/M phase cell cycle arrest in a concentration-dependent manner”. The “γH2AX protein expression, western blotting” value (γH2AX [2]) was “increases in the γH2AX protein expression”, the “tubulin polymerisation, morphological changes by immunofluorescence” value (tubulin polymerisation) was “significant tubulin polymerisation inhibition” and the γH2AX foci formation (γH2AX [3]) was “induced γH2AX foci formation”. The Topo-II inhibitory activity (Topo IIα) was “stronger inhibitory activity than 4b, 4i, and ETO”.
